ChEMBL document CHEMBL1126865, “Structure-activity relationship within a series of pyrazolidinone antibacterial agents. 2. Effect of side-chain modification on in vitro activity and pharmacokinetic parameters” (J Med Chem, 1993)
Converted amounts (≈) assume the structure as drawn.

What was measured:
Type in all cases: functional
Streptococcus pneumoniae = assay: In vitro antibacterial activity against Streptococcus pneumoniae PARK
Haemophilus influenzae = assay: In vitro antibacterial activity against Haemophilus influenza C.L
Klebsiella pneumoniae = assay: In vitro antibacterial activity against Klebsiella X26
Klebsiella aerogenes = assay: In vitro antibacterial activity against Enterobacter aerogenes C32
Staphylococcus aureus = assay: In vitro antibacterial activity against Staphylococcus aureus X1.1
[1] = test system: Staphylococcus epidermidis; assay: In vitro antibacterial activity against Staphylococcus epidermidis 222
Pseudomonas aeruginosa = assay: In vitro antibacterial activity against Pseudomonas PS72
Escherichia coli = assay: In vitro antibacterial activity against Escherichia coli EC14

| SMILES | MIC (Streptococcus pneumoniae) [µg/mL] | MIC (Haemophilus influenzae) [µg/mL] | MIC (Klebsiella pneumoniae) [µg/mL] | MIC (Klebsiella aerogenes) [µg/mL] | MIC (Staphylococcus aureus) [µg/mL] | MIC [1] [µg/mL] | MIC (Pseudomonas aeruginosa) [µg/mL] | MIC (Escherichia coli) [µg/mL] |
| --- | --- | --- | --- | --- | --- | --- | --- | --- |
| CCS(=O)(=O)C1=C(C(=O)O)N2C(=O)[C@@H](NC(=O)/C(=N/OCCCl)c3csc(N)n3)CN2C1 | 0.25 (≈ 0.493 µM) | 1 (≈ 1.97 µM) | 0.125 (≈ 0.247 µM) | 0.5 (≈ 0.986 µM) | 16 (≈ 31.6 µM) | 32 (≈ 63.1 µM) | > 128 | 0.25 (≈ 0.493 µM) |
| N#CC1=C(C(=O)O)N2C(=O)[C@@H](NC(=O)/C(=N/OCCF)c3csc(N)n3)CN2C1 | 0.25 (≈ 0.59 µM) | 0.25 (≈ 0.59 µM) | 0.03 (≈ 0.0709 µM) | 0.125 (≈ 0.295 µM) | 32 (≈ 75.6 µM) | 16 (≈ 37.8 µM) | 128 (≈ 302 µM) | 0.03 (≈ 0.0709 µM) |
| N#CC1=C(C(=O)O)N2C(=O)[C@@H](NC(=O)CSc3ccccc3)CN2C1 | 0.5 (≈ 1.4 µM) | 32 (≈ 89.3 µM) | 16 (≈ 44.6 µM) | 128 (≈ 357 µM) | 4 (≈ 11.2 µM) | 8 (≈ 22.3 µM) | > 128 | 32 (≈ 89.3 µM) |
| C=CCO/N=C(/C(=O)N[C@H]1CN2CC(S(=O)(=O)CCC)=C(C(=O)O)N2C1=O)c1csc(N)n1 | 0.06 (≈ 0.12 µM) | 0.25 (≈ 0.501 µM) | 0.06 (≈ 0.12 µM) | 0.5 (≈ 1 µM) | 16 (≈ 32.1 µM) | 32 (≈ 64.2 µM) | > 128 | 0.5 (≈ 1 µM) |
| CC(C)=CCO/N=C(/C(=O)N[C@H]1CN2CC(S(C)(=O)=O)=C(C(=O)O)N2C1=O)c1csc(N)n1 | 0.06 (≈ 0.12 µM) | 0.25 (≈ 0.501 µM) | 0.06 (≈ 0.12 µM) | 2 (≈ 4.01 µM) | 4 (≈ 8.02 µM) | 8 (≈ 16 µM) | > 128 | 0.5 (≈ 1 µM) |
| N#CC1=C(C(=O)O)N2C(=O)[C@@H](NC(=O)/C(=N/OCCBr)c3csc(N)n3)CN2C1 | 0.125 (≈ 0.258 µM) | 0.125 (≈ 0.258 µM) | 0.06 (≈ 0.124 µM) | 0.5 (≈ 1.03 µM) | 8 (≈ 16.5 µM) | 4 (≈ 8.26 µM) | > 128 | 0.125 (≈ 0.258 µM) |
| CCCS(=O)(=O)C1=C(C(=O)O)N2C(=O)[C@@H](NC(=O)/C(=N/OCC(F)(F)F)c3csc(N)n3)CN2C1 | 0.125 (≈ 0.231 µM) | 0.25 (≈ 0.463 µM) | 0.06 (≈ 0.111 µM) | 1 (≈ 1.85 µM) | 16 (≈ 29.6 µM) | 32 (≈ 59.2 µM) | > 128 | 0.25 (≈ 0.463 µM) |
| CS(=O)(=O)C1=C(C(=O)O)N2C(=O)[C@@H](NC(=O)/C(=N/OCC#N)c3csc(N)n3)CN2C1 | 0.25 (≈ 0.533 µM) | 2 (≈ 4.26 µM) | 0.25 (≈ 0.533 µM) | 0.5 (≈ 1.07 µM) | 64 (≈ 136 µM) | 128 (≈ 273 µM) | > 128 | 0.25 (≈ 0.533 µM) |
| CS(=O)(=O)C1=C(C(=O)O)N2C(=O)[C@@H](NC(=O)/C(=N/OCCBr)c3csc(N)n3)CN2C1 | 0.125 (≈ 0.233 µM) | 0.125 (≈ 0.233 µM) | 0.03 (≈ 0.0558 µM) | 0.125 (≈ 0.233 µM) | 8 (≈ 14.9 µM) | 8 (≈ 14.9 µM) | > 128 | 0.125 (≈ 0.233 µM) |
| CC(C)(O/N=C(/C(=O)N[C@H]1CN2CC(S(C)(=O)=O)=C(C(=O)O)N2C1=O)c1csc(N)n1)C(=O)O | 2 (≈ 3.87 µM) | 0.06 (≈ 0.116 µM) | 0.125 (≈ 0.242 µM) | 0.06 (≈ 0.116 µM) | > 128 | > 128 | 8 (≈ 15.5 µM) | 0.03 (≈ 0.0581 µM) |
| CCCCS(=O)(=O)C1=C(C(=O)O)N2C(=O)[C@@H](NC(=O)/C(=N/OCCCl)c3csc(N)n3)CN2C1 | 0.125 (≈ 0.234 µM) | 0.5 (≈ 0.935 µM) | 0.03 (≈ 0.0561 µM) | 1 (≈ 1.87 µM) | 8 (≈ 15 µM) | 16 (≈ 29.9 µM) | > 128 | 0.5 (≈ 0.935 µM) |
| C=CCO/N=C(/C(=O)N[C@H]1CN2CC(C#N)=C(C(=O)O)N2C1=O)c1csc(N)n1 | 0.125 (≈ 0.299 µM) | 0.125 (≈ 0.299 µM) | 0.06 (≈ 0.144 µM) | 0.5 (≈ 1.2 µM) | 32 (≈ 76.7 µM) | 16 (≈ 38.3 µM) | > 128 | 0.125 (≈ 0.299 µM) |
| CS(=O)(=O)C1=C(C(=O)O)N2C(=O)[C@@H](NC(=O)/C(=N/OCCCF)c3csc(N)n3)CN2C1 | 0.06 (≈ 0.122 µM) | 0.125 (≈ 0.255 µM) | 0.03 (≈ 0.0612 µM) | 0.125 (≈ 0.255 µM) | 8 (≈ 16.3 µM) | 16 (≈ 32.6 µM) | 128 (≈ 261 µM) | 0.03 (≈ 0.0612 µM) |
| N#CC1=C(C(=O)O)N2C(=O)[C@@H](NC(=O)Cc3cccs3)CN2C1 | 2 (≈ 6.02 µM) | 16 (≈ 48.1 µM) | 32 (≈ 96.3 µM) | 64 (≈ 193 µM) | 8 (≈ 24.1 µM) | 32 (≈ 96.3 µM) | > 128 | 16 (≈ 48.1 µM) |
| Nc1nc(/C(=N\OCCCl)C(=O)N[C@H]2CN3CC(S(=O)(=O)c4ccccc4)=C(C(=O)O)N3C2=O)cs1 | 0.06 (≈ 0.108 µM) | 0.25 (≈ 0.45 µM) | 0.06 (≈ 0.108 µM) | 4 (≈ 7.21 µM) | 16 (≈ 28.8 µM) | 32 (≈ 57.7 µM) | > 128 | 1 (≈ 1.8 µM) |
| N#CC1=C(C(=O)O)N2C(=O)[C@@H](NC(=O)Cn3cnnn3)CN2C1 | > 128 | > 128 | > 128 | > 128 | > 128 | > 128 | > 128 | > 128 |
| CCS(=O)(=O)C1=C(C(=O)O)N2C(=O)[C@@H](NC(=O)/C(=N/OCC3CC3)c3csc(N)n3)CN2C1 | 0.06 (≈ 0.12 µM) | 0.125 (≈ 0.251 µM) | 0.015 (≈ 0.0301 µM) | 0.25 (≈ 0.501 µM) | 16 (≈ 32.1 µM) | 32 (≈ 64.2 µM) | > 128 | 0.06 (≈ 0.12 µM) |
| CC(C)(O/N=C(/C(=O)N[C@H]1CN2CC(C#N)=C(C(=O)O)N2C1=O)c1csc(N)n1)C(=O)O | 16 (≈ 34.5 µM) | 0.06 (≈ 0.129 µM) | 0.25 (≈ 0.539 µM) | 0.125 (≈ 0.27 µM) | > 128 | > 128 | 64 (≈ 138 µM) | 0.03 (≈ 0.0647 µM) |
| CS(=O)(=O)C1=C(C(=O)O)N2C(=O)[C@@H](NC(=O)/C(=N/OCCCCCl)c3csc(N)n3)CN2C1 | 0.25 (≈ 0.48 µM) | 1 (≈ 1.92 µM) | 0.125 (≈ 0.24 µM) | 2 (≈ 3.84 µM) | 32 (≈ 61.4 µM) | 32 (≈ 61.4 µM) | > 128 | 1 (≈ 1.92 µM) |
| CCCS(=O)(=O)C1=C(C(=O)O)N2C(=O)[C@@H](NC(=O)/C(=N/OCCBr)c3csc(N)n3)CN2C1 | 0.06 (≈ 0.106 µM) | 0.125 (≈ 0.221 µM) | 0.03 (≈ 0.0531 µM) | 0.5 (≈ 0.884 µM) | 8 (≈ 14.1 µM) | 8 (≈ 14.1 µM) | > 128 | 0.25 (≈ 0.442 µM) |
| N#CC1=C(C(=O)O)N2C(=O)[C@@H](NC(=O)/C(=N/OCCCl)c3csc(N)n3)CN2C1 | 0.5 (≈ 1.14 µM) | 0.5 (≈ 1.14 µM) | 0.125 (≈ 0.284 µM) | 1 (≈ 2.27 µM) | 32 (≈ 72.8 µM) | 16 (≈ 36.4 µM) | > 128 | 0.25 (≈ 0.568 µM) |
| CCN1CCN(C(=O)N[C@@H](C(=O)N[C@H]2CN3CC(C#N)=C(C(=O)O)N3C2=O)c2ccccc2)C(=O)C1=O | 4 (≈ 7.85 µM) | 0.5 (≈ 0.981 µM) | 0.5 (≈ 0.981 µM) | 2 (≈ 3.93 µM) | 16 (≈ 31.4 µM) | 32 (≈ 62.8 µM) | 128 (≈ 251 µM) | 1 (≈ 1.96 µM) |
| CS(=O)(=O)C1=C(C(=O)O)N2C(=O)[C@@H](NC(=O)/C(=N/OCCCl)c3csc(N)n3)CN2C1 | 0.25 (≈ 0.507 µM) | 0.5 (≈ 1.01 µM) | 0.03 (≈ 0.0609 µM) | 0.125 (≈ 0.254 µM) | 16 (≈ 32.5 µM) | 32 (≈ 64.9 µM) | > 128 | 0.125 (≈ 0.254 µM) |
| CCCS(=O)(=O)C1=C(C(=O)O)N2C(=O)[C@@H](NC(=O)/C(=N/OCCF)c3csc(N)n3)CN2C1 | 0.125 (≈ 0.248 µM) | 0.125 (≈ 0.248 µM) | 0.03 (≈ 0.0595 µM) | 0.25 (≈ 0.496 µM) | 16 (≈ 31.7 µM) | 32 (≈ 63.4 µM) | > 128 | 0.125 (≈ 0.248 µM) |
